Results reported in patent US20230286969A1, “AROMATIC SPIRO RING AMIDE DERIVATIVES FOR THE TREATMENT AND PROPHYLAXIS OF HEPATITIS B VIRUS INFECTION” (Hoffmann-La Roche Inc., priority 2020, published 2023).
Read-outs that look alike come from different tables or passages of the source.

Key:
Assay type in all cases: cell-based
HBsAg = assay: PHH HBV natural infection assay, HBsAg (alphalisa)
Method in brief: (§1)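 Primary human hepatocytes infected with HBV at 200 GE/cell plus 4% PEG8000 for 24 h, then sandwich-cultured 72 h. Compounds were added in two refreshes 72 h apart. HBsAg and HBeAg in supernatant measured by AlphaLISA.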

[1] = tested on: primary human hepatocyte (PHH); assay: PHH natural infection assay, cytotoxicity (Cell Counting Kit-8); conditions: HBV-infected primary human hepatocytes, CCK8, end of treatment
Method in brief: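 HBV-infected at 200 GE/cell with 4% PEG8000 for 24 h, then sandwich-cultured 72 h in 1% DMSO and 0.25 mg/mL matrix gel. Compound added twice at 72-h intervals; supernatant HBsAg and HBeAg read by AlphaLISA, HBV DNA by quantitative fluorescence PCR kit. Cytotoxicity by CCK-8.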

HBeAg = assay: PHH HBV natural infection assay, HBeAg (alphalisa)
Method in brief: as §1

[2] = read-out: HBsAg IC50; HBV-infected primary human hepatocytes, supernatant, compound medium refreshed two times with 72-hour interval
[3] = read-out: HbeAg IC50; HBV-infected primary human hepatocytes, supernatant, compound medium refreshed two times with 72-hour interval

O=C(NC1CC2(C1)CC(c1nc3cc(Cl)ccc3o1)C2)c1ccc([S+]([O-])CC2CC2)o1 (single isomer, unassigned) [Example 19-b, N-[6-(5-chloro-1,3-benzoxazol-2-yl)spiro[3.3]heptan-2-yl]-5-(cyclopropylmethylsulfinyl)furan-2-carboxamide]
IC50 (HBsAg; [2]): 71 nM
CC50 [1]: > 10000 nM
IC50 (HBeAg; [3]): 53 nM

O=C(NC1CC2(C1)CC(c1nc3cc(Cl)ccc3o1)C2)c1ccc([S+]([O-])CC2CC2)o1 (single isomer, unassigned) [Example 19-c, N-[6-(5-chloro-1,3-benzoxazol-2-yl)spiro[3.3]heptan-2-yl]-5-(cyclopropylmethylsulfinyl)furan-2-carboxamide]
IC50 (HBsAg; [2]): 2420 nM
CC50 [1]: > 10000 nM
IC50 (HBeAg; [3]): 1950 nM

O=C(NC1CC2(C1)CC(c1nc3cc(Cl)ccc3o1)C2)c1ccc([S+]([O-])CC2CC2)o1 (single isomer, unassigned) [Example 19-d, N-[6-(5-chloro-1,3-benzoxazol-2-yl)spiro[3.3]heptan-2-yl]-5-(cyclopropylmethylsulfinyl)furan-2-carboxamide]
IC50 (HBsAg; [2]): 2860 nM
CC50 [1]: > 10000 nM
IC50 (HBeAg; [3]): 2500 nM

NS(=O)(=O)c1ccc(C(=O)NC2CC3(C2)CC(c2nc4cc(Cl)ccc4o2)C3)o1 (single isomer, unassigned) [Example 29-b, N-[6-(5-chloro-1,3-benzoxazol-2-yl)spiro[3.3]heptan-2-yl]-5-sulfamoyl-furan-2-carboxamide]
IC50 (HBsAg; [2]): 1550 nM
CC50 [1]: > 100000 nM
IC50 (HBeAg; [3]): 909 nM

O=C(NC1CC2(C1)CC(c1nc3cc(Cl)cnc3o1)C2)c1ccc(S(=O)(=O)C2CC2)o1 (single isomer, unassigned) [Example 49-b, N-[6-(6-chlorooxazolo[5,4-b]pyridin-2-yl)spiro[3.3]heptan-2-yl]-5-cyclopropylsulfonyl-furan-2-carboxamide]
IC50 (HBsAg; [2]): 647 nM
CC50 [1]: 91500 nM
IC50 (HBeAg; [3]): 626 nM

CS(=N)(=O)c1ccc(C(=O)NC2CC3(C2)CC(c2nc4cc(Cl)ccc4o2)C3)o1 (single isomer, unassigned) [Example 52-b, N-[6-(5-chloro-1,3-benzoxazol-2-yl)spiro[3.3]heptan-2-yl]-5-(methylsulfonimidoyl)furan-2-carboxamide]
IC50 (HBsAg; [2]): 939 nM
CC50 [1]: > 100000 nM
IC50 (HBeAg; [3]): 898 nM

CS(=N)(=O)c1ccc(C(=O)NC2CC3(C2)CC(c2nc4cc(Cl)ccc4o2)C3)o1 (single isomer, unassigned) [Example 52-c, N-[6-(5-chloro-1,3-benzoxazol-2-yl)spiro[3.3]heptan-2-yl]-5-(methylsulfonimidoyl)furan-2-carboxamide]
IC50 (HBsAg; [2]): 5040 nM
CC50 [1]: > 100000 nM
IC50 (HBeAg; [3]): 3610 nM

N=S(=O)(c1ccc(C(=O)NC2CC3(C2)CC(c2nc4cc(Cl)ccc4o2)C3)o1)C1CC1 (single isomer, unassigned) [Example 53-a, N-[6-(5-chloro-1,3-benzoxazol-2-yl)spiro[3.3]heptan-2-yl]-5-(cyclopropylsulfonimidoyl)furan-2-carboxamide]
IC50 (HBsAg; [2]): 1890 nM
CC50 [1]: > 10000 nM
IC50 (HBeAg; [3]): 1270 nM

N=S(=O)(c1ccc(C(=O)NC2CC3(C2)CC(c2nc4cc(Cl)ccc4o2)C3)o1)C1CC1 (single isomer, unassigned) [Example 53-b, N-[6-(5-chloro-1,3-benzoxazol-2-yl)spiro[3.3]heptan-2-yl]-5-(cyclopropylsulfonimidoyl)furan-2-carboxamide]
IC50 (HBsAg; [2]): 6830 nM
CC50 [1]: > 10000 nM
IC50 (HBeAg; [3]): 4650 nM

N=S(=O)(c1ccc(C(=O)NC2CC3(C2)CC(c2nc4cc(Cl)ccc4o2)C3)o1)C1CC1 (single isomer, unassigned) [Example 53-d, N-[6-(5-chloro-1,3-benzoxazol-2-yl)spiro[3.3]heptan-2-yl]-5-(cyclopropylsulfonimidoyl)furan-2-carboxamide]
IC50 (HBsAg; [2]): 1120 nM
CC50 [1]: 92800 nM
IC50 (HBeAg; [3]): 1340 nM

N=S(=O)(CC1CC1)c1ccc(C(=O)NC2CC3(C2)CC(c2nc4cc(Cl)ccc4o2)C3)o1 (single isomer, unassigned) [Example 54-a, N-[6-(5-chloro-1,3-benzoxazol-2-yl)spiro[3.3]heptan-2-yl]-5-(cyclopropylmethylsulfonimidoyl)furan-2-carboxamide]
IC50 (HBsAg; [2]): 6060 nM
CC50 [1]: > 10000 nM
IC50 (HBeAg; [3]): 5700 nM

N=S(=O)(CC1CC1)c1ccc(C(=O)NC2CC3(C2)CC(c2nc4cc(Cl)ccc4o2)C3)o1 (single isomer, unassigned) [Example 54-b, N-[6-(5-chloro-1,3-benzoxazol-2-yl)spiro[3.3]heptan-2-yl]-5-(cyclopropylmethylsulfonimidoyl)furan-2-carboxamide]
IC50 (HBsAg; [2]): 285 nM
CC50 [1]: > 100000 nM
IC50 (HBeAg; [3]): 166 nM

N=S(=O)(CC1CC1)c1ccc(C(=O)NC2CC3(C2)CC(c2nc4cc(Cl)ccc4o2)C3)o1 (single isomer, unassigned) [Example 54-c, N-[6-(5-chloro-1,3-benzoxazol-2-yl)spiro[3.3]heptan-2-yl]-5-(cyclopropylmethylsulfonimidoyl)furan-2-carboxamide]
IC50 (HBsAg; [2]): 5840 nM
CC50 [1]: > 10000 nM
IC50 (HBeAg; [3]): 4590 nM

N=S(=O)(CC1CC1)c1ccc(C(=O)NC2CC3(C2)CC(c2nc4cc(Cl)ccc4o2)C3)o1 (single isomer, unassigned) [Example 54-d, N-[6-(5-chloro-1,3-benzoxazol-2-yl)spiro[3.3]heptan-2-yl]-5-(cyclopropylmethylsulfonimidoyl)furan-2-carboxamide]
IC50 (HBsAg; [2]): 703 nM
CC50 [1]: > 10000 nM
IC50 (HBeAg; [3]): 694 nM

N=S(=O)(c1ccc(C(=O)NC2CC3(C2)CC(c2nc4cc(Cl)cnc4o2)C3)o1)C1CC1 (single isomer, unassigned) [Example 64-b, N-[6-(6-chlorooxazolo[5,4-b]pyridin-2-yl)spiro[3.3]heptan-2-yl]-5-(cyclopropylsulfonimidoyl)furan-2-carboxamide]
IC50 (HBsAg; [2]): 9460 nM
CC50 [1]: > 10000 nM
IC50 (HBeAg; [3]): 9130 nM

CCC(=O)NS(=O)(=O)c1ccc(C(=O)NC2CC3(C2)CC(c2nc4cc(Cl)ccc4o2)C3)o1 (stereo not drawn) [Example 68, (Sa)—N-[6-(5-chloro-1,3-benzoxazol-2-yl)spiro[3.3]heptan-2-yl]-5-(propanoylsulfamoyl)furan-2-carboxamide, or (Ra)—N-[6-(5-chloro-1,3-benzoxazol-2-yl)spiro[3.3]heptan-2-yl]-5-(propanoylsulfamoyl)furan-2-carboxamide]
IC50 (HBsAg; HBV-infected primary human hepatocytes, supernatant, compound medium refreshed two times with 72-hour interval; read-out: HBsAg IC50): 626 nM
CC50 [1]: > 100000 nM
IC50 (HBeAg; HBV-infected primary human hepatocytes, supernatant, compound medium refreshed two times with 72-hour interval; read-out: HbeAg IC50): 371 nM
